Results published in patent publication US9226965B2, “Method and composition for treating heart failure” (U.S. DEPARTMENT OF VETERANS AFFAIRS, priority 2007, dated 2016).
“Also recorded” adds a separate entry of the source.

Key:
Type in all cases: in vivo, rat
[1] = tested on: left ventricular tissue from SHR with heart failure; assay: Affymetrix (230 2.0) array mRNA analysis of left ventricular tissue from treated SHR with heart failure
Source text: Adult male spontaneously hypertensive rats (SHR) rats were purchased as retired breeders from Taconic Inc and boarded in the animal facility at the Boston VA Healthcare system until the time of study (18 to 24 months of age). Each rat was caged alone and allowed free access to chow and water. Animals were monitored several times per week for evidence of tachypnea and labored respiration; when these clinical findings were clearly in evidence, animals were either killed and studied or treated with captopril and/or phenylbutyrate. Groups of animals were treated by adding the angiotensin converting enzyme inhibitor captopril to the drinking water (2 g/L to drinking water) and/or phenylbutyrate to the drinking water (6 g/L to the drinking water; sodium 4-phenylbutyrate (Triple Crown America, Inc.)) when clinical evidence of impaired cardiac function was detected. Treatment was continued for 30 days, the animals closely monitored and then studied. A control group of age-matched, untreated SHR rats was used for comparison. At autopsy, animals were examined for pleural or pericardial effusions, atrial thrombi, and right and left ventricular hypertrophy. The heart was lightly blotted and weight, and individual cardiac chambers were quickly dissected, and chamber weight recorded. Left ventricular tissue samples were rapidly frozen and stored in liquid nitrogen for later mRNA analysis. Subsequently, total RNA was isolated from all left ventricular samples and subjected to individual Affymetrix (230 2.0) array analysis (performed at the Genomics Laboratory of Boston University School of Medicine, Boston Mass.). Six individual animals were included in each experimental group. […] FIGS. 7A-7B provide a visual summary of the quantitative changes in transcripts observed with heart failure (SHR-F) compared to non-failing gene expression (SHR-F vs. SHR-NF) and those effects of treatment (SHR-F+C and SHR-F+CP) relative to un-treated SHR with heart failure. […] FIGS. 8A-8B provide a summary of the number of identified transcripts whose expression was reversed following treatment relative to un-treated SHR with failure. In contrast, phenylbutyrate when combined with captopril treatment reversed expression of more than 47% of heart failure-induced changes in gene expression (p<0.01). […] Analysis of pooled mRNA samples of right ventricular tissue indicate relatively few genes were differentially expressed between LV and RV tissue either with failure or treatment (data not shown). LV and RV are similarly affected by heart failure and amenable to therapeutic treatment effects. Taken together, these findings are consistent with the concept that phenylbutyrate acts as a wide scale inhibitor of transcription to reverse aspects of adverse remodeling and dysfunction associated with heart failure. […] We studied isolated papillary muscle function in the spontaneously hypertensive rat (SHR) which develops heart failure (HF) between 18-24 month of age. Four groups of SHR each consisting of six animals were examined: non-treated SHR with HF (SHR-F), age matched controls without HF (SHR-NF), and SHR with HF that were treated with the ACE inhibitor captopril (2 g/L in drinking water) (SHR-F+C) or captopril combined with the histone deacetylase inhibitor phenylbutyrate (6 g/L in drinking water) for 30 days (SHR-F+CP). […] Following treatment, hearts were isolated and contractile function of LV papillary muscles studied. LV weight and histology were assessed. RNA was isolated from 24 LV samples and subjected to individual Affymetrix (230 2.0) array analysis. Table 3 (below) summarizes the physiological, histological and gene expression findings from this study. […] SHR-F; see FIGS. 7A-7B).

[2] = tested on: left ventricular papillary muscles from SHR with heart failure; assay: Mechanical function of isolated left ventricular papillary muscles from treated SHR with heart failure
Procedure: At the time of sacrifice, left ventricular papillary muscles were dissected free and mounted in an isolated muscle bath containing oxygenated physiologic solution for assessment of mechanical function. Muscle mechanics were measured under computer control of force or length of the preparation. Force and length data were sampled at a rate of 1 kHz and stored on disk for later analysis.
Treatment was continued for 30 days and then the animals studied.
We studied isolated papillary muscle function in the spontaneously hypertensive rat (SHR) which develops heart failure (HF) between 18-24 month of age. […] Following treatment, hearts were isolated and contractile function of LV papillary muscles studied. LV weight and histology were assessed. RNA was isolated from 24 LV samples and subjected to individual Affymetrix (230 2.0) array analysis.

SHR with heart failure [3] = assay: Quantitative histological examination of myocardial fibrosis; settings: Table 3, 30 days treatment, mean ± SD
Procedure: We studied isolated papillary muscle function in the spontaneously hypertensive rat (SHR) which develops heart failure (HF) between 18-24 month of age. Four groups of SHR each consisting of six animals were examined: non-treated SHR with HF (SHR-F), age matched controls without HF (SHR-NF), and SHR with HF that were treated with the ACE inhibitor captopril (2 g/L in drinking water) (SHR-F+C) or captopril combined with the histone deacetylase inhibitor phenylbutyrate (6 g/L in drinking water) for 30 days (SHR-F+CP). […] Following treatment, hearts were isolated and contractile function of LV papillary muscles studied. LV weight and histology were assessed. RNA was isolated from 24 LV samples and subjected to individual Affymetrix (230 2.0) array analysis. Table 3 (below) summarizes the physiological, histological and gene expression findings from this study. […] SHR-F; see FIGS. 7A-7B).

[4] = tested on: spontaneously hypertensive rats (SHR) with heart failure; assay: Body weight, cardiac chamber weights and hypertrophy indices in SHR with heart failure after 30 days of treatment
Source text: Adult male spontaneously hypertensive rats (SHR) rats were purchased as retired breeders from Taconic Inc and boarded in the animal facility at the Boston VA Healthcare system until the time of study (18 to 24 months of age). Each rat was caged alone and allowed free access to chow and water. Animals were monitored several times per week for evidence of tachypnea and labored respiration; when these clinical findings were clearly in evidence, animals were either killed and studied or treated with captopril and/or phenylbutyrate. Groups of animals were treated by adding the angiotensin converting enzyme inhibitor captopril to the drinking water (2 g/L to drinking water) and/or phenylbutyrate to the drinking water (6 g/L to the drinking water; sodium 4-phenylbutyrate (Triple Crown America, Inc.)) when clinical evidence of impaired cardiac function was detected. Treatment was continued for 30 days, the animals closely monitored and then studied. A control group of age-matched, untreated SHR rats was used for comparison. At autopsy, animals were examined for pleural or pericardial effusions, atrial thrombi, and right and left ventricular hypertrophy. The heart was lightly blotted and weight, and individual cardiac chambers were quickly dissected, and chamber weight recorded. Left ventricular tissue samples were rapidly frozen and stored in liquid nitrogen for later mRNA analysis. Subsequently, total RNA was isolated from all left ventricular samples and subjected to individual Affymetrix (230 2.0) array analysis (performed at the Genomics Laboratory of Boston University School of Medicine, Boston Mass.). Six individual animals were included in each experimental group. Table 1 (below) summarizes body weight, cardiac chamber weight, and ratios with and without treatment. Referring to Table 1, four groups of six SHR/group were examined: non-treated SHR with heart failure (SHR-F), age matched controls without heart failure (SHR-NF), and SHR with heart failure treated with the angiotensin converting enzyme inhibitor captopril (2 g/L in drinking water) (SHR-F+C) or captopril combined with the histone deacetylase inhibitor phenylbutyrate (6 g/L in the drinking water) for 30 days (SHR-F+CP). […] It was observed that SHR rats with heart failure had enlarged hearts and increased cardiac chamber weights relative to non-failing SHR group and the captopril treated SHR groups. In contrast, the rats treated with phenylbutyrate and captopril had far smaller cardiac chamber weights. There were no significant differences in body weight among the experimental groups. Indices of cardiac hypertrophy (i.e. LV/body weight ratio and RV/body weight ratios) were reduced with phenylbutyrate treatment. Cardiac chamber weight to tibia length data confirmed these findings.

SHR with heart failure [5] = assay: Serial echocardiographic measurement of LV ejection fraction in SHR; settings: echocardiography, SHR-F following 30 days of treatment, n=6 per group
Source text: FIGS. 1A-1B illustrate serial echocardiographic measurements in SHR. LV ejection fraction (FIG. 1A) and end-systolic and end-diastolic LV volume (FIG. 1B) of male SHR during the transition to heart failure (12, 17, and 19 months of age). EF, LV ejection fraction (%); ESV, end-systolic volume (ml); EDV, end-diastolic volume (ml). LV function remains compensated until approximately 17 months, and then rapidly declines; mean age at onset of heart failure 19±1 months. FIGS. 2A-2B represent serial echocardiographic measurements (n=6 animals per group) of LV ejection fraction (LVEF) from individual SHR obtained before the onset of heart failure (Baseline), at the time of heart failure (HF) and following 30 days of treatment (Rx) with either captopril (CAPT—FIG. 2A) or combined captopril and phenylbutyrate treatment (CAPT+PB—FIG. 2B). Note marked reduction in LVEF with HF. […] FIG. 3 illustrates LV ejection fraction (LVEF) in non-failing SHR (SHR-NF), SHR with HF (SHR-F) and SHR-F following 30 days of captopril (CAPT) or combined phenylbutyrate and captopril treatment (CAPT+PB). […] Data are mean±SD (n=6 per group).

[6] = Table 3, LV samples, p < 0.01 vs. SHR-F
[7] = of 1431 genes different between SHR-F and SHR-NF, p<0.01 vs. SHR-F
[8] = Table 2, LV papillary muscle after 30 days treatment, mean ± SD
[9] = Table 3, LV papillary muscle after 30 days treatment, mean ± SD
[10] = Table 1, SHR with heart failure, 30 days treatment, mean ± SD, n=6

## C[C@H](CS)C(=O)N1CCC[C@H]1C(=O)O [captopril]
[1]; [6]
  Gene Expression (number), down-regulated (↓) vs. SHR-F: 42
  Gene Expression (number), up-regulated (↑) vs. SHR-F: 99
[1]; identified transcripts
  number of identified genes down-regulated by treatment (overexpressed/induced with heart failure): 12
  number of identified genes up-regulated by treatment (repressed with heart failure): 15
[1]; identified transcripts, relative to un-treated SHR with failure
  number of identified genes whose expression was reversed by treatment: 27
[1]; [7]
  number of genes whose change in expression was significantly reversed: 141
  percentage of genes whose change in expression was significantly reversed: 9.8%
[1]; of heart failure-altered transcripts, p<0.01
  transcripts significantly modified with treatment: < 2%
[2]; FIG. 6A
  quick release force-velocity (F-V) relationships from LV papillary muscles, result in words: not significantly increased
[2]; FIG. 6B
  active tension (AT) of LV papillary muscles, result in words: did not improve
[2]; SHR with heart failure, 30 days treatment
  contractile function and passive muscle stiffness, result in words: did not restore contractile function or reduce passive muscle stiffness
[2]; [8]
  +dT/dt (rate of tension development): 28.4 ± 8.0 g/mm^2/s
  AT (active tension): 2.7 ± 0.4 g/mm^2
  Kwm (whole muscle stiffness): 73.9 ± 4.2
  V1.0 (shortening velocity): 0.9 ± 0.2 muscle length/s
[2]; [9]
  AT (active tension): 2.7 ± 0.4 g/mm^2
  V0.1 (shortening velocity): 0.9 ± 0.2 muscle lengths/s
SHR with heart failure [3]
  Fibrosis (%): 22.8 ± 3.1 %
[4]; FIG. 4A, SHR-F following 30 days of treatment
  LV/BW ratio, index of LV hypertrophy, result in words: no significant reduction
[4]; FIG. 4B, SHR-F following 30 days of treatment
  RV/BW ratio, index of RV hypertrophy, result in words: decreased with treatment
[4]; [10]
  LV/body wt. (left ventricular to body weight ratio): 3.3 ± 0.3^+ ratio
  RV/body wt. (right ventricular to body weight ratio): 0.86 ± 0.20^+ ratio
[4]; Table 3, SHR with heart failure, 30 days treatment, mean ± SD
  LV/Body Weight (ratio): 3.3 ± 0.4 ratio
SHR with heart failure [5]
  LV ejection fraction (LVEF), result in words: minimal improvement; also recorded: no significant change
